This is an account of results in patent US20240398781A1, “SPIROCYCLIC CYCLIC MODULATORS OF CHOLESTEROL BIOSYNTHESIS AND THEIR USE FOR PROMOTING REMYELINATION” (GENENTECH, INC., priority 2021, published 2024).

Assay [1] deals with human emopamil binding protein and human 7-dehydrocholesterol reductase co-expressing cells (hEBP-DHCR7 membrane) (Homo sapiens (Human), UniProt Q15125). Put plainly: Radioligand filter binding assay on hEBP-DHCR7 membrane. The conditions noted are these: [3H]-(S)-6-(2-Methyl-3-(6-(trifluoromethyl)pyridin-3-yl)propyl)-2-thia-6-azaspiro[3.4]octane 2,2-dioxide radioligand, HEK293 membrane co-expressing hEBP and hDHCR7. The method, boiled down: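 HEK293 cells transiently co-expressing human EBP and DHCR7 supplied whole-cell membranes (10 μg/well), incubated 3 h at 22 °C with [3H]-labelled spiro-octane dioxide ligand (added at 25 nM) and compound (0.06-5000 nM final, 8 doses, n=2). Bound ligand was collected on PEI-treated GF/B filters and counted by scintillation. IC50 was Hill-fitted from % inhibition and reported as Ki.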
Sequence of human emopamil binding protein and human 7-dehydrocholesterol reductase co-expressing cells (hEBP-DHCR7 membrane) (Q15125 whole entry): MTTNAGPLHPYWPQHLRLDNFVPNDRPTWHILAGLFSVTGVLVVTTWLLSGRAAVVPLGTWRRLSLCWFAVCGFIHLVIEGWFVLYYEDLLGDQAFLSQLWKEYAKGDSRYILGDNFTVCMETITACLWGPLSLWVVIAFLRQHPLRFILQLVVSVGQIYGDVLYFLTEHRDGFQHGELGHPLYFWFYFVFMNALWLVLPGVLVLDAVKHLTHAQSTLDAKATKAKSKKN

Another assay deals with EpiSC-derived OPCs. In words: In vitro phenotypic screening of OPCs (MBP staining, high-content imaging). It counts as cell-based, mouse. The settings on record: Mus musculus, 72 h, percentage of MBP+ oligodendrocytes, 3 days, 0.5 nM to 1000 nM; read-out: OPC EC50. The method, boiled down:
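EpiSC-derived mouse OPCs seeded at 150,000/cm^2 on laminin in N2B27 without growth factors, treated 3 days at 37° C. with compound (8 points, 1000 nM to 0.5 nM). Fixed cells stained for MBP and DAPI and imaged; percentage of MBP+ oligodendrocytes fitted by Hill equation for EC50.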

Usually Ki stands for the dissociation constant of the complex between target and ligand, obtained from inhibition or displacement. Higher therefore signals lower affinity. Broadly, the EC50 is the concentration needed to bring the measured effect to its halfway point. In assay [1], `O=S1(=O)CC2(CCN([C@H]3CO[C@H](c4ccc(C(F)(F)F)cc4)C3)C2)C1` (stereo in doubt) [19D*, 6-((3R,5S)-5-(4-(trifluoromethyl)phenyl)tetrahydrofuran-3-yl)-2-thia-6-azaspiro[3.4]octane 2,2-dioxide] gave a Ki of 33 nM. The EC50 in the assay with EpiSC-derived OPCs was 160 nM.
`CCn1nc(-c2ccc(C(F)(F)F)nc2)nc1[C@H]1CC[C@H](N2CCC3(C2)CS(=O)(=O)C3)CC1` [36A*, 6-((1r,4r)-4-(1-Ethyl-3-(6-(trifluoromethyl)pyridin-3-yl)-1H-1,2,4-triazol-5-yl)cyclohexyl)-2-thia-6-azaspiro[3.4]octane 2,2-dioxide]: in assay [1], the affinity corresponds to a Ki of 61 nM. Moreover, in the assay on EpiSC-derived OPCs, the EC50 turned out to be 73 nM.
For `CCn1nc(-c2ccc(C(F)(F)F)nc2)nc1[C@H]1CC[C@@H](N2CCC3(C2)CS(=O)(=O)C3)CC1` [36B*, 6-((1s,4s)-4-(1-ethyl-3-(6-(trifluoromethyl)pyridin-3-yl)-1H-1,2,4-triazol-5-yl)cyclohexyl)-2-thia-6-azaspiro[3.4]octane 2,2-dioxide], in that order: 260 nM and 72 nM.
In the same order, the values of `O=S1(=O)CC2(CCN([C@@H]3CC[C@@H](c4ccc(C(F)(F)F)cc4)C3)C2)C1` [Compound 1B, 6-((1R,3R)-3-(4-(trifluoromethyl)phenyl)cyclopentyl)-2-thia-6-azaspiro[3.4]octane 2,2-dioxide] are 26.8 nM and 1.8 nM.
On to `Cn1nc(C(F)(F)F)cc1[C@H]1CC[C@@H](N2CCC3(C2)CS(=O)(=O)C3)CC1` [Compound 2A, 6-((1s,4s)-4-(1-methyl-3-(trifluoromethyl)-1H-pyrazol-5-yl)cyclohexyl)-2-thia-6-azaspiro[3.4]octane 2,2-dioxide], for which, in assay [1], the Ki came to 44.5 nM. Also, the EC50 in the assay with EpiSC-derived OPCs came out at 240 nM.
For `Cn1nc(C(F)(F)F)cc1[C@H]1CC[C@H](N2CCC3(C2)CS(=O)(=O)C3)CC1` [Compound 2B, 6-((1r,4r)-4-(1-methyl-3-(trifluoromethyl)-1H-pyrazol-5-yl)cyclohexyl)-2-thia-6-azaspiro[3.4]octane 2,2-dioxide], in that order: 69.3 nM and 48 nM.
In turn, `O=S1(=O)CC2(CCN([C@H]3CC[C@H](c4ccc(C(F)(F)F)cc4)CC3)C2)C1` [Compound 3A, 6-((1r,4r)-4-(4-(trifluoromethyl)phenyl)cyclohexyl)-2-thia-6-azaspiro[3.4]octane 2,2-dioxide] gave a Ki in assay [1] of 15.8 nM. In addition, the EC50 in the assay with EpiSC-derived OPCs turned out to be 5.1 nM.
Regarding `O=S1(=O)CC2(CCN([C@H]3CC[C@@H](c4ccc(C(F)(F)F)cc4)CC3)C2)C1` [Compound 3B, 6-((1s,4s)-4-(4-(trifluoromethyl)phenyl)cyclohexyl)-2-thia-6-azaspiro[3.4]octane 2,2-dioxide], in assay [1], the Ki came to 27.5 nM. Moreover, the EC50 in the assay with EpiSC-derived OPCs turned out to be 30 nM.
In assay [1], `O=S1(=O)CC2(CCN(C3CCN(c4ccc(C(F)(F)F)cc4)CC3)C2)C1` [Compound 4, 6-(1-(4-(trifluoromethyl)phenyl)piperidin-4-yl)-2-thia-6-azaspiro[3.4]octane 2,2-dioxide] displayed an inhibition constant (Ki) of 51.8 nM. Also, the EC50 with EpiSC-derived OPCs came to 23 nM.
Regarding `O=S1(=O)CC2(CCN(C3CCN(c4ccc(C(F)(F)F)nc4)CC3)C2)C1` [Compound 5, 6-(1-(6-(trifluoromethyl)pyridin-3-yl)piperidin-4-yl)-2-thia-6-azaspiro[3.4]octane 2,2-dioxide], in assay [1], the affinity, expressed as Ki, was 148 nM. The EC50 in the assay with EpiSC-derived OPCs is 190 nM.
For `O=S1(=O)CC2(CCN(C3CCN(c4ccc(C(F)(F)F)cn4)CC3)C2)C1` [Compound 6, 6-(1-(5-(trifluoromethyl)pyridin-2-yl)piperidin-4-yl)-2-thia-6-azaspiro[3.4]octane 2,2-dioxide], in that order: 23 nM and 39 nM.
`Cc1cc(C(F)(F)F)cnc1N1CCC(N2CCC3(C2)CS(=O)(=O)C3)CC1` [Compound 7, 6-(1-(3-methyl-5-(trifluoromethyl)pyridin-2-yl)piperidin-4-yl)-2-thia-6-azaspiro[3.4]octane 2,2-dioxide]: the affinity in assay [1] corresponds to a Ki of 17.5 nM. Further, the EC50 in the assay with EpiSC-derived OPCs amounted to 21 nM.
For `CC(C)n1nc(C(F)(F)F)cc1[C@H]1CC[C@H](N2CCC3(C2)CS(=O)(=O)C3)CC1` [Compound 8A, 6-((1r,4r)-4-(1-isopropyl-3-(trifluoromethyl)-1H-pyrazol-5-yl)cyclohexyl)-2-thia-6-azaspiro[3.4]octane 2,2-dioxide], in that order: 34 nM and 71 nM.
For `CC(C)n1nc(C(F)(F)F)cc1[C@H]1CC[C@@H](N2CCC3(C2)CS(=O)(=O)C3)CC1` [Compound 8B, 6-((1s,4s)-4-(1-isopropyl-3-(trifluoromethyl)-1H-pyrazol-5-yl)cyclohexyl)-2-thia-6-azaspiro[3.4]octane 2,2-dioxide], in that order: 32.9 nM and 240 nM.
As to `O=S1(=O)CC2(CCN([C@H]3CC[C@H](c4cc(C(F)(F)F)nn4C4CC4)CC3)C2)C1` [Compound 12A, 6-((1r,4r)-4-(1-Cyclopropyl-3-(trifluoromethyl)-1H-pyrazol-5-yl)cyclohexyl)-2-thia-6-azaspiro[3.4]octane 2,2-dioxide], the inhibition constant Ki in assay [1] is 34 nM. In the assay on EpiSC-derived OPCs, the EC50 was 37 nM.
As for `O=S1(=O)CC2(CCN([C@H]3CC[C@@H](c4cc(C(F)(F)F)nn4C4CC4)CC3)C2)C1` [Compound 12B, 6-((1s,4s)-4-(1-Cyclopropyl-3-(trifluoromethyl)-1H-pyrazol-5-yl)cyclohexyl)-2-thia-6-azaspiro[3.4]octane 2,2-dioxide], the Ki in assay [1] came out at 32 nM. The EC50 with EpiSC-derived OPCs stood at 240 nM.
In the same order, the values of `O=S1(=O)CC2(CCN([C@H]3CC[C@H](c4ccc(C(F)(F)F)nc4)CC3)C2)C1` [Compound 14A, 6-((1r,4r)-4-(6-(Trifluoromethyl)pyridin-3-yl)cyclohexyl)-2-thia-6-azaspiro[3.4]octane 2,2-dioxide] are 59 nM and 16 nM.
In the same order, the values of `O=S1(=O)CC2(CCN([C@H]3CC[C@@H](c4ccc(C(F)(F)F)nc4)CC3)C2)C1` [Compound 14B, 6-((1s,4s)-4-(6-(Trifluoromethyl)pyridin-3-yl)cyclohexyl)-2-thia-6-azaspiro[3.4]octane 2,2-dioxide] are 28 nM and 240 nM.
In assay [1], `CCn1nc(C(F)(F)F)cc1[C@H]1CC[C@H](N2CCC3(C2)CS(=O)(=O)C3)CC1` [Compound 15, 6-((1r,4r)-4-(1-Ethyl-3-(trifluoromethyl)-1H-pyrazol-5-yl)cyclohexyl)-2-thia-6-azaspiro[3.4]octane 2,2-dioxide] showed a Ki of 56 nM. Moreover, the EC50 in the assay with EpiSC-derived OPCs was 44 nM.
In the same order, the values of `CCn1nc([C@H]2CC[C@H](N3CCC4(C3)CS(=O)(=O)C4)CC2)cc1C(F)(F)F` [Compound 16, 6-((1r,4r)-4-(1-Ethyl-5-(trifluoromethyl)-1H-pyrazol-3-yl)cyclohexyl)-2-thia-6-azaspiro[3.4]octane 2,2-dioxide] are 52 nM and 41 nM.
In the same order, the values of `Cc1cc(C(F)(F)F)ncc1[C@H]1CC[C@@H](N2CCC3(C2)CS(=O)(=O)C3)CC1` [Compound 21A, 6-((1s,4s)-4-(4-Methyl-6-(trifluoromethyl)pyridin-3-yl)cyclohexyl)-2-thia-6-azaspiro[3.4]octane 2,2-dioxide] are 32 nM and 37 nM.
